# Tests used:
# [1] = tested on: Plasmodium falciparum; experiment: Antimalarial activity against chloroquine and pyrimethamine-resistant Plasmodium falciparum K1; format: functional, organism-based
# [2] = tested on: L6; experiment: Cytotoxicity against rat L6 cells; format: cell-based
# [3] = Selectivity index, ratio of IC50 for rat L6 cells to IC50 for Trypanosoma brucei rhodesiense STIB900; format: toxicity, cell-based; conditions: read-out: Ratio IC50
# [4] = tested on: Trypanosoma brucei rhodesiense; experiment: Antitrypanosomal activity against Trypanosoma brucei rhodesiense STIB900 by microplate assay; format: functional, organism-based
Compound,"IC50 ([1]; Plasmodium falciparum, K1)","IC50 ([2]; Rattus norvegicus, L6)",selectivity ratio [3],"IC50 ([4]; Trypanosoma brucei, STIB900)",IC50 [1],IC50 ([2]; l6),IC50 [4]
CN(C)C12CC(OC(=O)CCN3CCCC3)C(C(c3ccccc3)C1)C(c1ccccc1)C2 (racemic),0.55 µM,25.9 µM,341,0.076 µM,–,–,–
O=C(CN1CCC(O)CC1)OC1CC2(N3CCCC3)CC(c3ccccc3)C1C(c1ccccc1)C2 (racemic),0.86 µM,93.4 µM,–,1.05 µM,–,–,–
CN(C)C12CC(OC(=O)CN3CCC(O)CC3)C(C(c3ccccc3)C1)C(c1ccccc1)C2 (racemic),2.16 µM,102 µM,–,2.06 µM,–,–,–
O=C(CCN1CCCC1)OC1CC2(N3CCCC3)CC(c3ccccc3)C1C(c1ccccc1)C2 (racemic),0.37 µM,21.9 µM,–,0.12 µM,–,–,–
CCN(CC)CCC(=O)OC1CC2(N3CCCCC3)CC(c3ccccc3)C1C(c1ccccc1)C2 (racemic),0.19 µM,22.9 µM,–,0.15 µM,–,–,–
O=C(CN1CCCCC1)OC1CC2(N3CCCCC3)CC(c3ccccc3)C1C(c1ccccc1)C2 (racemic),–,–,–,–,1.41 µM,> 185 µM,5.42 µM
CN(C)C12CC(OC(=O)CCN3CCCCC3)C(C(c3ccccc3)C1)C(c1ccccc1)C2 (racemic),0.4 µM,25.8 µM,–,0.21 µM,–,–,–
CCN(CC)CCC(=O)OC1CC2(N3CCCC3)CC(c3ccccc3)C1C(c1ccccc1)C2 (racemic),0.3 µM,19.2 µM,–,0.11 µM,–,–,–
O=C(CCN1CCCC1)OC1CC2(N3CCCCC3)CC(c3ccccc3)C1C(c1ccccc1)C2 (racemic),0.25 µM,12.5 µM,–,0.38 µM,–,–,–
O=C(CCN1CCC(O)CC1)OC1CC2(N3CCCC3)CC(c3ccccc3)C1C(c1ccccc1)C2 (racemic),1.91 µM,35.6 µM,–,1.43 µM,–,–,–
O=C(CN1CCC(O)CC1)OC1CC2(N3CCCCC3)CC(c3ccccc3)C1C(c1ccccc1)C2 (racemic),–,> 179 µM,–,3.81 µM,–,–,–
CN(C)C12CC(OC(=O)CCN3CCC(O)CC3)C(C(c3ccccc3)C1)C(c1ccccc1)C2 (racemic),2.25 µM,89.2 µM,–,0.95 µM,–,–,–
Nc1nc(N)nc(Nc2ccc([As]3SCC(CO)S3)cc2)n1 (stereo not given) [MELARSOPROL],–,–,–,0.005 µM,–,–,–
O=C(CCN1CCC(O)CC1)OC1CC2(N3CCCCC3)CC(c3ccccc3)C1C(c1ccccc1)C2 (racemic),0.17 µM,28.5 µM,–,0.98 µM,–,–,–
O=C(CCN1CCCCC1)OC1CC2(N3CCCC3)CC(c3ccccc3)C1C(c1ccccc1)C2 (racemic),0.28 µM,17.8 µM,–,0.31 µM,–,–,–
O=C(CCN1CCCCC1)OC1CC2(N3CCCCC3)CC(c3ccccc3)C1C(c1ccccc1)C2 (racemic),0.26 µM,54.6 µM,–,0.91 µM,–,–,–
O=C(CN1CCCC1)OC1CC2(N3CCCCC3)CC(c3ccccc3)C1C(c1ccccc1)C2 (racemic),–,–,–,–,0.74 µM,52 µM,0.88 µM
CCN(CC)CCC(=O)OC1CC2(N(C)C)CC(c3ccccc3)C1C(c1ccccc1)C2 (racemic),0.43 µM,23.6 µM,–,0.11 µM,–,–,–
CCN(CC)CC(=O)OC1CC2(N3CCCCC3)CC(c3ccccc3)C1C(c1ccccc1)C2 (racemic),–,–,–,–,0.77 µM,61.3 µM,1.53 µM
